# Laboratory results taken from PubChem BioAssay AID1996.
# Conditions: buffer; pH 7.4; 200.0 µM
row,SMILES,solubility kinetic [µg/mL]
1,COc1cc(CN2CCCCCC2)cc(OC)c1O,27
2,Cc1ccc(N2C(=O)CN(Cc3cccs3)C2=S)cc1C,< 0.3
3,Cc1nc(CNS(=O)(=O)c2ccc(F)cc2)cs1,> 43
4,O=C(CCl)Nc1cccc(S(=O)(=O)NC2=NCCCCC2)c1,> 51.6
5,Nc1nc(Cl)cc(=O)n1Cc1ccc(Cl)cc1,28.1
6,O=C(c1ccncc1)N1CCN(S(=O)(=O)c2ccc(F)cc2)CC1,> 52.4
7,CCCCn1c(CCC(=O)O)nc2cc(S(=O)(=O)N3CCCC3)ccc21,> 56.9
8,CC1=C(C)CC(C(=O)NC2CCCC2)C(C(=O)O)C1 (centres undefined),> 39.8
9,CCCOc1ccc(Cc2c(O)nc(SC)[nH]c2=O)cc1,44.6
10,c1cnc2c(c1)ccc1cccnc12,> 27
11,CC1=C(C(=O)OCCC(C)C)C(c2ccc3c(c2)OCO3)NC(=O)N1 (centres undefined),6.2
12,Cn1c(CO)cnc1S(=O)(=O)Cc1c(Cl)cccc1Cl,> 50.3
13,Nc1cnn(C2OC(CO)C(O)C2O)c(=O)n1 (centres undefined),> 36.6
14,CCNC(=O)NC(=O)C(C)OC(=O)CCCc1nc2ccccc2s1 (centres undefined),49.4
15,Cc1[nH]c2c([N+](=O)[O-])cccc2c1C,1.2
16,Cc1ccc(CN2CCN(Cc3ccc(O)cc3)CC2CCO)o1 (centres undefined),> 49.6
17,O=C1CSc2ccc(C(=O)O)cc2N1,> 31.4
18,Cn1c(N)c(C(=O)COC(=O)Cc2cccc(C(F)(F)F)c2)c(=O)n(C)c1=O,53.2
19,CC(NC(=O)C1CCCC1)c1ccc(Br)cc1 (centres undefined),33.4
20,N/C(=N\OC(=O)c1ccc(F)cc1)c1ccc(Br)cc1,0.4

row,SMILES,solubility kinetic [µg/mL]
1,Cc1cc2ncn(S(=O)(=O)c3ccc(F)cc3)c2cc1C,31.8
2,CCCNC(=O)Cn1nc(C(F)(F)F)c2c1CCC2,> 41.3
3,NC(=O)c1cc(S(=O)(=O)Nc2cccc(Cl)c2)cs1,> 47.5
4,COc1cc(OC)c(C(=O)OCC(=O)c2ccc3c(c2)NC(=O)CO3)cc1OC,4.9
5,O=C(NC12CC3CC(CC(C3)C1)C2)c1cc(F)c(F)cc1Cl,0.7
6,Cc1nc(SCC(=O)NCC2CCCO2)nc(C)c1C (centres undefined),> 44.3
7,COc1cccc(NC(=O)N2C3CCCC2CC(NC(=O)C2CC2)C3)c1 (centres undefined),44.4
8,CC1(C(=O)N2CCN(C(=O)c3ccco3)CC2)CC1(Br)Br (centres undefined),> 63
9,O=C(NCCCNC(=O)c1cnccn1)c1ccc(Cl)cc1,> 47.8
10,CC(C)CCNC(=O)COc1cccc2c1OC(C)(C)C2,43.4
11,CSc1ccccc1C(=O)C1CCCN(Cc2ccccn2)C1 (centres undefined),44.8
12,Cc1cccc2c(N=O)c(O)[nH]c12,> 26.4
13,COc1ccccc1Nc1nc(NCCCN(C)C)nc(N)c1[N+](=O)[O-],> 54.2
14,CCOc1cc2c(C#N)c(N3CCCCC3)nc(N)c2c(N)n1,10.6
15,Cc1ccc(S(=O)(=O)NCCN2CCNC2=O)cc1,38.5
16,CC(C)CNC(=O)COC(=O)c1c2c(nc3ccccc13)CCC2,> 49
17,COc1cc2c(cc1OC)C(c1cc([N+](=O)[O-])ccc1O)NCC2 (centres undefined),> 49.6
18,CC(C)COc1ccc(C(=S)N2CCCC2)cc1,21.2
19,O=C(O)c1cc(S(=O)(=O)N2CCOCC2)c[nH]1,> 39
20,O=C(Nc1ccc2c(c1)OCO2)c1ccc([N+](=O)[O-])cc1[N+](=O)[O-],10.6

row,SMILES,solubility kinetic [µg/mL]
1,Cc1ccccc1CN(C)C1CCN(C)CC1,31.7
2,Cc1ccccc1-c1nnc(SC(C)C(=O)NC2CCCC2)o1 (centres undefined),> 49.7
3,Cc1cc(C#N)c(SCC(N)=O)nc1-c1ccc(F)cc1,5.6
4,Nc1nc2c(s1)CCCCCCCCCC2,6.6
5,Cl.c1cnc(N2CCNCC2)nc1,> 35.6
6,CCNc1nc(NCC)nc(OCC(=O)O)n1,> 36.2
7,O=C(NCC(=O)N1CCN(S(=O)(=O)c2ccc3c(c2)OCCO3)CC1)c1ccccc1F,10.2
8,COc1nc(N)nc(N)c1NS(=O)(=O)c1ccc(C)cc1,> 46.4
9,CN1CCN(c2nc(Cl)ncc2F)CC1,> 34.6
10,COc1cc([N+](=O)[O-])cc([N+](=O)[O-])c1NC(=O)N1CCOCC1,> 48.9
11,Cc1cccc(C)c1Nc1nnc(SCC(=O)NCCCN2CCCC2=O)s1,> 62.9
12,Cc1cccc(N2CC(C)Cn3c2nc2c3c(=O)[nH]c(=O)n2C)c1 (centres undefined),27
13,CN1CCN(c2ncnc3scc(-c4ccccc4Cl)c23)CC1,> 51.7
14,O=C(COc1ccccc1)NCC1(N2CCCCC2)CCCCC1,48.3
15,Cc1c(C(=O)N2CCN(c3ncccn3)CC2)oc2ccc(F)cc12,9.5
16,CC1CCc2c(sc3ncn(CCO)c(=O)c23)C1 (centres undefined),> 39.7
17,Cc1noc(C)c1S(=O)(=O)N1CCC(C(=O)c2ccccc2)CC1,30
18,COc1ccc(-c2cc(-c3ccco3)[nH]c(=O)c2C#N)cc1,5.3
19,O=S(=O)(c1cccc(C(F)(F)F)c1)c1ccc(O)cn1,41.1

# The next lines start with the values.
row,solubility kinetic [µg/mL],SMILES
1,1.9,CCOC(=O)CNC(=O)C1c2ccccc2Oc2ccccc21
2,> 55.6,CC(=O)O.CN1CCCC(CN2c3ccccc3Sc3ccccc32)C1 (centres undefined)
3,> 52.3,Cc1cc(NC(=O)CSc2nnc(-c3ccccc3F)n2N)no1
4,< 0.2,COc1ccc([N+](=O)[O-])cc1Nc1c2ccccc2nc2ccccc12
5,> 52,O=C(O)c1ccc(Cn2c(=S)[nH]c3cc(Cl)ccc3c2=O)cc1
6,15.8,COc1ccccc1CNC(=O)c1ccc2ccccc2n1
7,> 38.6,COc1ccc(C(=O)Nc2nc(C)cc(C)n2)cc1
8,2.3,Cc1ccc2c(c1)sc1nc(=O)n(-c3ccccc3)c(=O)n12
9,> 67.6,CC(NC(=O)COC(=O)c1cc(S(=O)(=O)N2CCOCC2)ccc1F)c1ccccc1 (centres undefined)
10,18.4,Cc1ccc(SCC(=O)N2CCN(S(=O)(=O)c3cccs3)CC2)cc1
11,> 57.4,CCNC(=S)NNC(=O)c1ccc(S(=O)(=O)NCc2ccco2)cc1
12,14,C=C(C)c1cccc(C(C)(C)NC(=O)Nc2ccc(OC)nc2)c1
13,50.8,CC(NC(=O)/C(C#N)=C/c1ccc(OCC(=O)O)cc1)c1ccccc1 (centres undefined)
14,5.2,COc1cccc(Nc2ccc([N+](=O)[O-])c3nonc23)c1
15,5.6,COc1ccc([N+](=O)[O-])c(S(=O)(=O)c2ccccc2)n1
16,5.5,O=C1c2ccccc2NC(c2ccccc2O)N1c1ccc(F)cc1 (centres undefined)
17,0.5,O=C(COc1ccccc1[N+](=O)[O-])Nc1ccc2oc(=O)ccc2c1
18,1,CN(Cc1ccccc1)C(=O)c1cc2cc(F)ccc2[nH]1
19,4.6,O=C1CN(C(=O)COC(=O)/C=C/c2ccc(F)cc2)c2ccccc2N1
20,> 37,Cc1cccc(CC(=O)NC2CCN(C)CC2)c1

row,solubility kinetic [µg/mL],SMILES
1,> 46.1,CC(=O)Nc1ccc(S(=O)(=O)c2cc(O)ccc2O)cc1
2,2.1,COC(=O)Nc1ccc(S(=O)(=O)N2CCCc3cccc(O)c32)cc1
3,> 32.6,COC(=O)c1cn(-c2cccc(C)n2)cn1
4,0.8,O=C(Nc1cccc(O)c1)c1cc(-c2ccccc2Cl)on1
5,5.3,Cc1ccc(OCCn2cc(C=O)c3ccccc32)cc1
6,1.8,Cc1ccc(NC(=O)C(=O)Nc2ccc(C)cn2)nc1
7,41.3,N#C/C(=C(/O)CCl)c1nc(-c2ccccc2)cs1
8,7.7,CCOc1ccccc1NC(=O)c1cccc2ccccc12
9,1.6,CCOc1ccc(CNC(=S)Nc2ccccc2)cc1Cl
10,3.7,O=C(O)Cc1ccc(NC(=O)Cc2ccc3ccccc3c2)cc1
11,> 46.9,COc1ccc(NC(=O)N2CCCc3ccccc32)cc1OC
12,32.6,Cl.O=C(CN1CCCC1)NCc1ccccc1
13,38.4,CSc1ncc(Sc2ccccc2)c(C(=O)O)n1
14,> 36.9,O=C1C2CCCN2C(=S)N1Cc1ccccc1 (centres undefined)
15,< 0.7,O=C1NC(=O)/C(=C\c2ccc(OCc3ccccc3)cc2)S1
16,14.4,Cc1ccc(OCCNC(=O)c2ccc3c(c2)OCO3)cc1
17,> 46.8,O=C(O)c1ccccc1C(=O)N1CCN(c2ncccn2)CC1
18,4.8,Cc1ccc(OCCCCN2CCc3ccccc3C2)c(C)c1.Cl
19,18.3,O=C(O)c1c(NC(=O)N(CCO)Cc2ccccc2)sc2c1CCCC2
20,> 55.9,CC(CNC(=O)c1ccccc1[N+](=O)[O-])NC(=O)c1ccccc1[N+](=O)[O-] (centres undefined)

row,solubility kinetic [µg/mL],SMILES
1,3.3,Cc1ccc(NC(=S)NC(=O)Cc2ccccc2)c(O)c1
2,> 48.3,O=C(COC(=O)c1ccc([N+](=O)[O-])o1)NCc1ccc(F)cc1
3,43.8,Cc1nc(C)c(C(=O)NCCC(c2ccccc2)c2ccccc2)o1
4,33,CCCC1CC(C(=O)Nc2ccccc2)C(=O)O1 (centres undefined)
5,2.4,Cc1cccc(NC(=O)COc2ccc3c(c2)CCC3)n1
6,25.8,Cc1[nH]c2ccccc2c1SCC(=O)N1CCCCCC1
7,37.6,O=C(O)c1cccnc1Sc1ccccc1Cl
8,> 51.7,CC(C)C(NC(=O)c1ccco1)C(=O)NCc1ccc(C(=O)O)cc1 (centres undefined)
9,1.2,O=C1NC(=Nc2ccccc2)S/C1=C/c1cccnc1
10,> 55.9,COc1ccc2[nH]c(C(=O)N(Cc3ccccn3)Cc3ccccn3)cc2c1
11,20.1,COc1ccc(S(=O)(=O)N2CCc3ccccc32)cc1C(=O)NCC(c1ccco1)N1CCCC1 (centres undefined)
12,> 36.2,Cc1ccccc1NC(=O)NCc1ccccn1
13,9.9,O=C(NCCCCc1ccccc1)c1cc([N+](=O)[O-])cc([N+](=O)[O-])c1
14,> 61,COc1ccccc1OCC(O)CN1CCN(C(=O)c2ccccc2)CC1.Cl (centres undefined)
15,44.9,O=C(Nc1ccccc1N1CCCC1)c1ccc([N+](=O)[O-])o1
16,0.3,O=c1oc(-c2ccc([N+](=O)[O-])cc2)nc2ccccc12
17,38.5,CCC(C)c1ccc(NC(=S)NCc2ccccn2)cc1 (centres undefined)
18,35.8,CC(=O)Nc1cccc(NCC(=O)Nc2cc(S(=O)(=O)N3CCCCC3)ccc2Cl)c1
19,< 0.4,O=C(c1cccs1)N1CCN=C1SCc1ccc(Cl)cc1
20,> 45.5,COc1ccc(CCNC(=O)C2CC=CCC2C(=O)O)cc1 (centres undefined)
